Laboratory results published in the supplement of paper PMC10307832.

Assays:
Assay in all cases: relative viability (nuclei count vs DMSO), 5 days (fraction); higher = more cells survive
[1] = compound: C1=CC2=NC=CN=C2C=C1/C=C/3\C(=O)NC(=O)S3 + Nc1ncn([C@H]2C[C@H](O)[C@@H](CO)O2)c(=O)n1 [Decitabine] (partner 2 µM)
Procedure, shortened: (§1)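 Medians of duplicate plates are given as relative viability. That measure is the nuclei count in treated wells divided by the count in vehicle wells. Counts were taken on 4× images of lung cancer cell lines in 1536-well plates, 5 days after pin-tool dosing the day after seeding with one drug alone or a fixed anchor-drug dose plus five library-drug doses (not always all listed) in √10 steps.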

[2] = compound: C1=CC2=NC=CN=C2C=C1/C=C/3\C(=O)NC(=O)S3 + CS(=O)(=O)N1CCN(Cc2cc3nc(-c4cccc5[nH]ncc45)nc(N4CCOCC4)c3s2)CC1 [Pictilisib] (partner 1 µM)
Procedure, shortened: as §1

BGJ398 + AZD7762 = compound: CCN1CCN(c2ccc(Nc3cc(N(C)C(=O)Nc4c(Cl)c(OC)cc(OC)c4Cl)ncn3)cc2)CC1 [BGJ398] + NC(=O)Nc1cc(-c2cccc(F)c2)sc1C(=O)N[C@H]1CCCNC1 [AZD7762] (partner 0.2 µM)
Procedure, shortened: as §1

BGJ398 + Trametinib = compound: CCN1CCN(c2ccc(Nc3cc(N(C)C(=O)Nc4c(Cl)c(OC)cc(OC)c4Cl)ncn3)cc2)CC1 [BGJ398] + CC(=O)Nc1cccc(-n2c(=O)n(C3CC3)c(=O)c3c(Nc4ccc(I)cc4F)n(C)c(=O)c(C)c32)c1 [Trametinib] (partner 0.02 µM)
Procedure, shortened: as §1

Cell Line | relative viability ([1]; first compound 0.02 µM) | relative viability ([1]; first compound 0.06325 µM) | relative viability ([1]; first compound 0.2 µM) | relative viability ([1]; first compound 0.6325 µM) | relative viability ([1]; first compound 2 µM) | relative viability ([2]; first compound 0.02 µM) | relative viability ([2]; first compound 0.06325 µM) | relative viability ([2]; first compound 0.2 µM) | relative viability ([2]; first compound 0.6325 µM) | relative viability ([2]; first compound 2 µM) | relative viability (BGJ398 + AZD7762; first compound 0.01 µM) | relative viability (BGJ398 + AZD7762; first compound 0.03162 µM) | relative viability (BGJ398 + AZD7762; first compound 0.1 µM) | relative viability (BGJ398 + AZD7762; first compound 0.3162 µM) | relative viability (BGJ398 + AZD7762; first compound 1 µM) | relative viability (BGJ398 + Trametinib; first compound 0.01 µM) | relative viability (BGJ398 + Trametinib; first compound 0.03162 µM) | relative viability (BGJ398 + Trametinib; first compound 0.1 µM) | relative viability (BGJ398 + Trametinib; first compound 0.3162 µM) | relative viability (BGJ398 + Trametinib; first compound 1 µM)
NCI-H2347 | 0.631 | 0.829 | 0.631 | 0.586 | 0.546 | 0.706 | 0.609 | 0.748 | 0.527 | 0.757 | 0.811 | 0.801 | 0.837 | 0.814 | 0.851 | 0.32 | 0.239 | 0.275 | 0.309 | 0.259
NCI-H2405 | 0.686 | 0.818 | 0.751 | 0.793 | 0.586 | 0.488 | 0.504 | 0.428 | 0.433 | 0.182 | 0.84 | 0.857 | 0.781 | 0.757 | 0.656 | 0.495 | 0.654 | 0.622 | 0.463 | 0.59
NCI-H3122 | 0.434 | 0.431 | 0.468 | 0.459 | 0.403 | 0.697 | 0.487 | 0.578 | 0.547 | 0.364 | 0.51 | 1 | 1.04 | 1.02 | 1.17 | 0.204 | 0.223 | 0.245 | 0.19 | 0.264
PC-3 [JPC-3] | 0.785 | 0.911 | 0.822 | 0.801 | 0.868 | 0.687 | 0.881 | 0.594 | 0.65 | 0.8 | 0.853 |  | 0.781 |  | 0.837 | 0.75 |  | 0.787 |  | 0.782
PC-14 | 0.242 | 0.272 | 0.237 | 0.204 | 0.275 | 0.636 | 0.75 | 0.735 | 0.652 | 0.531 | 0.403 |  | 0.387 | 0.176 | 0.249 | 0.762 | 0.821 | 0.735 |  | 0.903
RERF-LC-KJ | 0.596 | 0.726 | 0.681 | 0.632 | 0.628 | 0.502 | 0.457 | 0.492 | 0.518 | 0.482 | 0.858 | 1 | 0.987 | 0.819 | 0.295 | 0.854 | 0.864 | 0.962 | 0.87 | 0.953
